In PubChem BioAssay AID2060487 (Molecular Pharmacology Branch, DTP, NCI, 2025):

Tested on: 997537-175-T-J1-PDC complex spheroid viability
Experiment: Anticancer human tumor 997537-175-T-J1-PDC patient-derived colon adenocarcinoma cell line growth inhibition [GQUAD]
Settings: for IC50: curve of first compound; for viability, T/C: stronger effect = lower value
Procedure, shortened: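 Tumor cells were grown as complex spheroids with HUVEC endothelial cells and mesenchymal stem cells as stroma. G-quadruplex stabilizers were combined with targeted agents over half-log dilutions from near the clinical Cmax, or from 10 microM.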

[1] = second compound 0.0316 µM, first compound 0.0316 µM
[2] = second compound 0.0316 µM, first compound 0.1 µM
[3] = second compound 0.0316 µM, first compound 0.316 µM
[4] = second compound 0.0316 µM, first compound 1 µM
[5] = second compound 0.0316 µM, first compound 3.16 µM
[6] = second compound 0.0316 µM, first compound 10 µM
[7] = second compound 0.1 µM, first compound 0.0316 µM
[8] = second compound 0.1 µM, first compound 0.1 µM
[9] = second compound 0.1 µM, first compound 0.316 µM
[10] = second compound 0.1 µM, first compound 1 µM
[11] = second compound 0.1 µM, first compound 3.16 µM
[12] = second compound 0.1 µM, first compound 10 µM
[13] = second compound 0.316 µM, first compound 0.0316 µM
[14] = second compound 0.316 µM, first compound 0.1 µM
[15] = second compound 0.316 µM, first compound 0.316 µM
[16] = second compound 0.316 µM, first compound 1 µM
[17] = second compound 0.316 µM, first compound 3.16 µM
[18] = second compound 0.316 µM, first compound 10 µM
[19] = second compound 1 µM, first compound 0.0316 µM
[20] = second compound 1 µM, first compound 0.1 µM
[21] = second compound 1 µM, first compound 0.316 µM
[22] = second compound 1 µM, first compound 1 µM
[23] = second compound 1 µM, first compound 3.16 µM
[24] = second compound 1 µM, first compound 10 µM
[25] = second compound 3.16 µM, first compound 0.0316 µM
[26] = second compound 3.16 µM, first compound 0.1 µM
[27] = second compound 3.16 µM, first compound 0.316 µM
[28] = second compound 3.16 µM, first compound 1 µM
[29] = second compound 3.16 µM, first compound 3.16 µM
[30] = second compound 3.16 µM, first compound 10 µM
[31] = second compound 10 µM, first compound 0.0316 µM
[32] = second compound 10 µM, first compound 0.1 µM
[33] = second compound 10 µM, first compound 0.316 µM
[34] = second compound 10 µM, first compound 1 µM
[35] = second compound 10 µM, first compound 3.16 µM
[36] = second compound 10 µM, first compound 10 µM
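Note: spheroids exposed to the agents for 7 days.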
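Throughout, for viability, T/C: 100% = DMSO vehicle control viability.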

`C=CC(=O)N1CCN(c2nc(=O)n(-c3c(C)ccnc3C(C)C)c3nc(-c4c(O)cccc4F)c(F)cc23)C(C)C1` (stereo unspecified) + CN(C)c1ccc(Nc2c3ccc(NC(=O)CCN4CCCC4)cc3nc3cc(NC(=O)CCN4CCCC4)ccc23)cc1 was tested, and the IC50 (second compound 0.0316 µM) was greater than 10000 nM, the IC50 (second compound 0.1 µM) was greater than 10000 nM and the IC50 (second compound 0.316 µM) was greater than 10000 nM. For the same molecule, the IC50 (second compound 1 µM) was greater than 10000 nM, the IC50 (second compound 3.16 µM) was greater than 10000 nM and the IC50 (second compound 10 µM) was greater than 10000 nM. For the same molecule, the viability, T/C [1] was 103%, the viability, T/C [2] was 99.2% and the viability, T/C [3] was 86.6%. The viability, T/C [4] was 68.8%, the viability, T/C [5] was 70.6% and the viability, T/C [6] was 85.6%. For the same molecule, the viability, T/C [7] was 87.7%, the viability, T/C [8] was 88.4% and the viability, T/C [9] was 93.5%. For the same molecule, the viability, T/C [10] was 82.1%, the viability, T/C [11] was 95.7% and the viability, T/C [12] was 89.8%. The viability, T/C [13] was 90.7%, the viability, T/C [14] was 98.5% and the viability, T/C [15] was 88.7%. For the same molecule, the viability, T/C [16] was 77.5%, the viability, T/C [17] was 92.4% and the viability, T/C [18] was 74.7%. For the same molecule, the viability, T/C [19] was 89.5%, the viability, T/C [20] was 93.1% and the viability, T/C [21] was 97.7%. The viability, T/C [22] was 67.9%, the viability, T/C [23] was 104% and the viability, T/C [24] was 96.2%. For the same molecule, the viability, T/C [25] was 69.1%, the viability, T/C [26] was 81.1% and the viability, T/C [27] was 91.2%. The viability, T/C [28] was 83.5%, the viability, T/C [29] was 97.6% and the viability, T/C [30] was 81.2%. It also gave a viability, T/C [31] of 77%, a viability, T/C [32] of 85.7% and a viability, T/C [33] of 91.2%. The viability, T/C [34] was 98.4%, the viability, T/C [35] was 91.2% and the viability, T/C [36] was 93.9%.

Work on `CC1COCCN1c1cc(C2(O)CC3CCC(C2)O3)c2cnn(-c3ccn[nH]3)c2n1` (stereo unspecified) + CN(C)c1ccc(Nc2c3ccc(NC(=O)CCN4CCCC4)cc3nc3cc(NC(=O)CCN4CCCC4)ccc23)cc1 yielded an IC50 (second compound 0.0316 µM) of 786 nM, an IC50 (second compound 0.1 µM) of 461 nM and an IC50 (second compound 0.316 µM) of 1690 nM. The IC50 (second compound 1 µM) was 211 nM, the IC50 (second compound 3.16 µM) was greater than 10000 nM and the IC50 (second compound 10 µM) was greater than 10000 nM. It also gave a viability, T/C [1] of 78.9%, a viability, T/C [2] of 74.6% and a viability, T/C [3] of 57.6%. For the same molecule, the viability, T/C [4] was 46.9%, the viability, T/C [5] was 44.2% and the viability, T/C [6] was 51.1%. It also gave a viability, T/C [7] of 105%, a viability, T/C [8] of 79% and a viability, T/C [9] of 55.3%. It also gave a viability, T/C [10] of 37.1%, a viability, T/C [11] of 43.8% and a viability, T/C [12] of 48.5%. For the same molecule, the viability, T/C [13] was 86.9%, the viability, T/C [14] was 60.2% and the viability, T/C [15] was 58.5%. It also gave a viability, T/C [16] of 42.2%, a viability, T/C [17] of 48.7% and a viability, T/C [18] of 54.2%. For the same molecule, the viability, T/C [19] was 77.7%, the viability, T/C [20] was 52.8% and the viability, T/C [21] was 44.8%. The viability, T/C [22] was 40.7%, the viability, T/C [23] was 49% and the viability, T/C [24] was 60%. The viability, T/C [25] was 55.8%, the viability, T/C [26] was 65.7% and the viability, T/C [27] was 70.2%. It also gave a viability, T/C [28] of 45.6%, a viability, T/C [29] of 47.9% and a viability, T/C [30] of 66.5%. It also gave a viability, T/C [31] of 82.7%, a viability, T/C [32] of 61.9% and a viability, T/C [33] of 69.4%. The viability, T/C [34] was 47%, the viability, T/C [35] was 41.8% and the viability, T/C [36] was 66.5%.

With `CCc1c2c(nc3ccc(O)cc13)-c1cc3c(c(=O)n1C2)COC(=O)[C@]3(O)CC` + CN(C)c1ccc(Nc2c3ccc(NC(=O)CCN4CCCC4)cc3nc3cc(NC(=O)CCN4CCCC4)ccc23)cc1 the IC50 (second compound 0.0316 µM) was 13.8 nM, the IC50 (second compound 0.1 µM) was 10.3 nM and the IC50 (second compound 0.316 µM) was 10.2 nM. It also gave an IC50 (second compound 1 µM) of 15.7 nM, an IC50 (second compound 3.16 µM) of 15.8 nM and an IC50 (second compound 10 µM) of 21.3 nM. The viability, T/C (second compound 0.0316 µM, first compound 0.000999 µM) was 97.8%, the viability, T/C (second compound 0.0316 µM, first compound 0.00316 µM) was 84.2% and the viability, T/C (second compound 0.0316 µM, first compound 0.00999 µM) was 58.6%. It also gave a viability, T/C [1] of 29.5%, a viability, T/C (second compound 0.0316 µM, first compound 0.0999 µM) of 6.84% and a viability, T/C [3] of 4.15%. For the same molecule, the viability, T/C (second compound 0.1 µM, first compound 0.000999 µM) was 104%, the viability, T/C (second compound 0.1 µM, first compound 0.00316 µM) was 83.4% and the viability, T/C (second compound 0.1 µM, first compound 0.00999 µM) was 50.6%. It also gave a viability, T/C [7] of 22.9%, a viability, T/C (second compound 0.1 µM, first compound 0.0999 µM) of 9.03% and a viability, T/C [9] of 4.26%. For the same molecule, the viability, T/C (second compound 0.316 µM, first compound 0.000999 µM) was 97%, the viability, T/C (second compound 0.316 µM, first compound 0.00316 µM) was 78.4% and the viability, T/C (second compound 0.316 µM, first compound 0.00999 µM) was 51.6%. It also gave a viability, T/C [13] of 22.6%, a viability, T/C (second compound 0.316 µM, first compound 0.0999 µM) of 8.39% and a viability, T/C [15] of 4.2%. It also gave a viability, T/C (second compound 1 µM, first compound 0.000999 µM) of 77.5%, a viability, T/C (second compound 1 µM, first compound 0.00316 µM) of 58.7% and a viability, T/C (second compound 1 µM, first compound 0.00999 µM) of 67.6%. It also gave a viability, T/C [19] of 23.9%, a viability, T/C (second compound 1 µM, first compound 0.0999 µM) of 11.6% and a viability, T/C [21] of 3.86%. The viability, T/C (second compound 3.16 µM, first compound 0.000999 µM) was 75%, the viability, T/C (second compound 3.16 µM, first compound 0.00316 µM) was 85% and the viability, T/C (second compound 3.16 µM, first compound 0.00999 µM) was 57.8%. The viability, T/C [25] was 33.8%, the viability, T/C (second compound 3.16 µM, first compound 0.0999 µM) was 9.84% and the viability, T/C [27] was 4.51%. For the same molecule, the viability, T/C (second compound 10 µM, first compound 0.000999 µM) was 83.9%, the viability, T/C (second compound 10 µM, first compound 0.00316 µM) was 84% and the viability, T/C (second compound 10 µM, first compound 0.00999 µM) was 80.4%. The viability, T/C [31] was 34.2%, the viability, T/C (second compound 10 µM, first compound 0.0999 µM) was 11.7% and the viability, T/C [33] was 4.48%.
